Test results from patent US20190016703A1, “BIFUNCTIONAL COMPOUNDS FOR HER3 DEGRADATION AND METHODS OF USE” (Dana-Farber Cancer Institute, Inc., priority 2015, published 2019).

What was measured:
826-GR6 = test: Anti-proliferation assay (MTS cell viability); assay type: cell-based; details: 72 h, 826-GR6 cells, 3 d incubation, read-out: Cell lines (EC50, μM) 826-GR6
Procedure: Cells are seeded and incubated for 3 d after bifunctional compounds of the application are added. Cell viability is measured via MTS Assay. This assay uses a colorimetric method to determine the number of viable cells based on the bioreduction of MTS by cells to a formazan product that is soluble in cell culture medium and can be detected spectrophotometrically. In a typical experiment, the supernatant is removed and replaced by 100 μl of RPMI media supplemented with MTS reagent and PMS. The plates are measured with Perkin Elmer EnVision after reaching an optical density (OD) of 1.0-2.0 at a wavelength of 490 nm. The cell numbers are normalized compared to DMSO control, and the EC50 values are calculated using GraphPad Prism.
Five cell lines, PC9-GR4, 826-GR6, Ovacar 8, A549, and Ovacar 5 were grown and treated with representative compounds. Viability of the cells after the treatment was assessed by MTS assay.
The anti-proliferation assay was carried out using 96-well clear bottom plates. […] Cell viability was measured via MTS Assay. This assay uses a colorimetric method to determine the number of viable cells based on the bioreduction of MTS by cells to a formazan product that is soluble in cell culture medium and can be detected spectrophotometrically. […] The plates were measured with Perkin Elmer EnVision after reaching an optical density (OD) of 1.0-2.0 at a wavelength of 490 nm. […]

Her3 [1] = target: T1, Her3 (Homo sapiens, UniProt P21860); test: LanthaScreen Eu kinase binding assay; set-up: purchased Life Technologies; details: read-out: Binding affinities (IC50)
T1 sequence (P21860 20-1342): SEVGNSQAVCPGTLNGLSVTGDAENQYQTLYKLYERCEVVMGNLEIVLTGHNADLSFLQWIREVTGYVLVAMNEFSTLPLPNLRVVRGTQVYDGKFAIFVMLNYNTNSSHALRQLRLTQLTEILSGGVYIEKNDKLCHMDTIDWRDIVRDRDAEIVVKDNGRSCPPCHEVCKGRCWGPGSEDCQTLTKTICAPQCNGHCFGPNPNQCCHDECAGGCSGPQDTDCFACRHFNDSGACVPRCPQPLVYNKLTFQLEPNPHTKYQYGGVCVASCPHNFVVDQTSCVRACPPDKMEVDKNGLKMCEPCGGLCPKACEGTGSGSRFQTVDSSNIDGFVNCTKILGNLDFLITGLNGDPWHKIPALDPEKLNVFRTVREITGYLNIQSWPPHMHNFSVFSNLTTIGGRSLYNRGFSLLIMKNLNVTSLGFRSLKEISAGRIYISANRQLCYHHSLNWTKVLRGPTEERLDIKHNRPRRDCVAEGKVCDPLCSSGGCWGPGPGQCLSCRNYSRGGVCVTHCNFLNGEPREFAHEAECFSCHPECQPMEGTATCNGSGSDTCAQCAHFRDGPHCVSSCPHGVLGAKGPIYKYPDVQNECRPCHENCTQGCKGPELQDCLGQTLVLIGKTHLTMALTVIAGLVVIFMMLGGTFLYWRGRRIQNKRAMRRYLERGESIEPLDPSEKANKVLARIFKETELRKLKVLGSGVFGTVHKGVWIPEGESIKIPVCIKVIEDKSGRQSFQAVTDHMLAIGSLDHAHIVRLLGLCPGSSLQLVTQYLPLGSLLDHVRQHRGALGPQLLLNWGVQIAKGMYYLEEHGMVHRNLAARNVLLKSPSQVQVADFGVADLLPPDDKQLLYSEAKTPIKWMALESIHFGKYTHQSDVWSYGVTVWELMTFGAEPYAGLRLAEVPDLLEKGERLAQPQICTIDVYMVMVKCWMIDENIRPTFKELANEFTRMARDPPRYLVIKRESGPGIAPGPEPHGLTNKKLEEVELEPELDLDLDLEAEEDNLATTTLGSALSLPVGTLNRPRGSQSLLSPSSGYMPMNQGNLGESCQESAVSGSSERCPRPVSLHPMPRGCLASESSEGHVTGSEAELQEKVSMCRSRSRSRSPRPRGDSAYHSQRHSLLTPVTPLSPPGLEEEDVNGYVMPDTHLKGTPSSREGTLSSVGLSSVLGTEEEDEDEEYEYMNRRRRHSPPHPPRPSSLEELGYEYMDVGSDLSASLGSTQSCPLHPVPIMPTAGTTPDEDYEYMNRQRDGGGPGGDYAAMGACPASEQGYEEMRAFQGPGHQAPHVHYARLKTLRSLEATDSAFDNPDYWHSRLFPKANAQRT
Procedure: Lantha screening is performed by following the method reported in Nature Chemical Biology, 10, 1006-1012 (2014).
Binding affinities (IC 50) of representative compounds were measured by the Life Technologies LanthaScreen Eu kinase binding assay, which was previously reported (Xie T. et al., Nat. Chew. Biol. 2014, 10, 1006-1012).
Lantha screening was performed by following the method reported in Nature Chemical Biology, 10, 1006-1012 (2014).

Her3 [2] = target: T1, Her3; test: Her3 protein degradation by Western blot (immunoblotting); assay type: cell-based; set-up: endogenous in cells; host or cells: PC9-GR4; Ovacar 8; key: +: Her3 protein was degraded; −: Her3 protein was not degraded; details: PC9-GR4 or Ovacar 8 cell lines, 2 μM, 4 hours and 8 hours
Procedure: Cells are seeded at the desired density the day before treatment starts with bifunctional compounds of the application at various concentration. After 4 to 12 hrs, cells are washed with buffer and lysed. The lysates are centrifuged and the supernatant is collected. Protein concentrations are measured using a protein assay kit, such as the BCA protein assay kit, Pierce, catalog number 23225) and normalized. Samples are run on a SDS-PAGE gel, and transferred to a PVDF membrane. The PVDF membrane is probed with the appropriate antibody.
Her3 protein degradation was assessed via Western blots after treatment of PC9-GR4 cell lines or Ovacar 8 cell lines with 2 μM of representative compounds for 4 hours and 8 hours.
Cells were seeded at a density of 4×10̂5 per 6 cm plate the day before treatment started with representative compounds of the application at the indicated concentration. After 4 to 12 hrs, cells were washed with phosphate-buffered saline. Lysis buffer included 50 mM Tris-HCl, […], 150 mM NaCl, 1% NP-40, and 5 mM EDTA, pH 7.4+/−0.2, Roche PhosSTOP phosphatase inhibitor cocktail tablets and Roche Complete Protease inhibitor cocktail tablets. Cell lysis was accomplished by addition of lysis buffer for 5-10 min on ice. Lysates were centrifuged in a microcentrifuge at 14,000 r.p.m. for 15 min at 4° C., and the supernatant was collected. Protein concentrations were measured using BCA protein assay kit (Pierce, catalog number 23225) and normalized. Samples were run on a 4%-12% SDS-PAGE gel at 120 V. After transfer, the PVDF membrane was probed with anti-Her3 antibody, Santa Cruz, catalog number sc-285 at 1:1000 dilution.

COc1cc(Nc2c(C#N)cnc3cc(OCCCN4CCN(CCOCCOCCNc5cccc6c5C(=O)N(C5CCC(=O)NC5=O)C6=O)CC4)c(OC)cc23)c(Cl)cc1Cl (stereo not drawn) [Compound CY6]
EC50 (826-GR6): 5 to 15 µM
IC50 (Her3 [1]): < 0.01 µM
Her3 degradation (Her3 [2]): −

COc1cc2ncnc(Nc3cccc(Cl)c3F)c2cc1OC1CCN(CC(=O)NCCOCCOCCOCCNc2cccc3c2C(=O)N(C2CCC(=O)NC2=O)C3=O)CC1 (stereo not drawn) [Compound CY11]
Her3 degradation (Her3 [2]): −

COc1cc(Nc2c(C#N)cnc3cc(OCCCN4CCN(C(=O)CCCNC(=O)COc5cccc6c5C(=O)N(C5CCC(=O)NC5=O)C6=O)CC4)c(OC)cc23)c(Cl)cc1Cl (stereo not drawn) [Compound CY2]
IC50 (Her3 [1]): < 0.01 µM
Her3 degradation (Her3 [2]): −

CCOc1cc2ncc(C#N)c(Nc3ccc(OCc4ccccn4)c(Cl)c3)c2cc1NC(=O)CCOCCOCCOCCNc1cccc2c1C(=O)N(C1CCC(=O)NC1=O)C2=O (stereo not drawn) [Compound CY4]
Her3 degradation (Her3 [2]): −

CCOc1cc2ncc(C#N)c(Nc3ccc(OCc4ccccn4)c(Cl)c3)c2cc1NC(=O)CCOCCOCCOCCOCCOCCNc1cccc2c1C(=O)N(C1CCC(=O)NC1=O)C2=O (stereo not drawn) [Compound CY5]
Her3 degradation (Her3 [2]): −

COc1cc(Nc2c(C#N)cnc3cc(OCCCOCCOCCOCCOCCNc4cccc5c4C(=O)N(C4CCC(=O)NC4=O)C5=O)c(OC)cc23)c(Cl)cc1Cl (stereo not drawn) [Compound CY9]
IC50 (Her3 [1]): 0.01 to 0.1 µM
Her3 degradation (Her3 [2]): +

CCOc1cc2ncc(C#N)c(Nc3ccc(OCc4ccccn4)c(Cl)c3)c2cc1NC(=O)CCOCCOCCNc1cccc2c1C(=O)N(C1CCC(=O)NC1=O)C2=O (stereo not drawn) [Compound CY3]
Her3 degradation (Her3 [2]): −

COc1cc2ncnc(Nc3cccc(Cl)c3F)c2cc1OC1CCN(CC(=O)NCCOCCOCCNc2cccc3c2C(=O)N(C2CCC(=O)NC2=O)C3=O)CC1 (stereo not drawn) [Compound CY10]
Her3 degradation (Her3 [2]): −

COc1cc(Nc2c(C#N)cnc3cc(OCCCN4CCN(CCOCCOCCOCCNc5cccc6c5C(=O)N(C5CCC(=O)NC5=O)C6=O)CC4)c(OC)cc23)c(Cl)cc1Cl (stereo not drawn) [Compound CY7]
EC50 (826-GR6): 5 to 15 µM
IC50 (Her3 [1]): < 0.01 µM
Her3 degradation (Her3 [2]): −

COc1cc(Nc2c(C#N)cnc3cc(OCCCN4CCN(CC(=O)NCCOCCOCCOCCNC(=O)COc5cccc6c5C(=O)N(C5CCC(=O)NC5=O)C6=O)CC4)c(OC)cc23)c(Cl)cc1Cl (stereo not drawn) [Compound CY1]
IC50 (Her3 [1]): < 0.01 µM
Her3 degradation (Her3 [2]): −

COc1cc(Nc2c(C#N)cnc3cc(OCCCOCCOCCOCCNc4cccc5c4C(=O)N(C4CCC(=O)NC4=O)C5=O)c(OC)cc23)c(Cl)cc1Cl (stereo not drawn) [Compound CY8]
Her3 degradation (Her3 [2]): −
